This note sets out measurements from patent US10689362B2, “Quinoxaline compounds as type III receptor tyrosine kinase inhibitors” (Development Center for Biotechnology, priority 2016, dated 2020).

In assay [1] the test system is THP-1 human acute monocytic leukemia cell harboring NRAS G12D mutation. In words: THP-1 cell proliferation assay (counter screen, CellTiter-96). The conditions noted are these: Cytotoxicity, THP-1 cells (counter screen), 72 hours. The class given is cell-based. The method, boiled down:
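THP-1 cells, RTK-independent owing to NRAS G12D, seeded at 5000/well, incubated overnight at 37 °C/5% CO2, then exposed to increasing compound concentrations for 72 h. CellTiter96 AQueous One reagent added for 4 h; viability from absorbance at 490 nm.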
A general note: Counterscreens check selectivity or assay interference.

For another assay, the target named is c-KIT kinase (Homo sapiens (Human), UniProt P10721). Nature of the assay: c-KIT kinase assay (radiometric). The format is biochemical. As to conditions: class symbol. A digest of the protocol: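 Recombinant c-Kit (20 ng) with 2 μg Poly-(Glu4:Tyr1) in MOPS pH 7.0 buffer with MgCl2/MnCl2, 10 μM ATP plus [^33P]-ATP, 4% DMSO final, 60 min at 30° C. Stopped with phosphoric acid, filter-captured and scintillation counted; IC50 from curve fit.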

For another assay, the target named is CSF-1R kinase (Homo sapiens (Human), UniProt P07333). In words: CSF-1R kinase assay (AlphaScreen). The format is biochemical. The conditions noted are these: class symbol. As for the experimental part: Inhibition of CSF-1R kinase activity by a test compound disclosed herein was estimated by AlphaScreen (PerkinElmer). […] Reactions were incubated at 30° C. for 45 min and stopped by adding 5 μL of 50 mM EDTA. Analysis of resulting product using an AlphaScreen kit, and counted with Enspire Alpha (PerkinElmer). […] The IC50 values of quinoxaline compounds of this invention against CSF-1R kinase were determined using the GraphPad Prism 5 software.
Background: In Alpha technology, singlet oxygen from a donor bead excites a nearby acceptor bead.

Assay [2] relates to MV4-11 human acute myeloid leukemia cell with FLT3-ITD mutation. Nature of the assay: MV4-11 cell proliferation assay (CellTiter-96). The conditions noted are these: Cytotoxicity, MV4-11 cells, 72 hours. The class given is cell-based. A digest of the protocol:
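MV4-11 cells (FLT3-ITD, FLT3-dependent growth) seeded at 6500 cells/well, incubated overnight at 37° C., 5% CO2, then exposed to increasing compound concentrations for 72 hours. Viability read by CellTiter96 AQueous One reagent (4 hours), absorbance at 490 nm.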

Assay [3] deals with Kasumi-1 human acute myeloid leukemia cell with c-KIT N822K activating mutation. Nature of the assay: Kasumi-1 cell proliferation assay (CellTiter-96). The class given is cell-based. As to conditions: Cytotoxicity, Kasumi-1 cells, 72 hours. The method, boiled down:
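Kasumi-1 cells, seeded at 64000 cells/well and incubated overnight at 37 °C, were exposed to increasing compound concentrations for 72 h. Viability was measured by CellTiter96 AQueous One reagent (4 h) and absorbance at 490 nm.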

In the next assay the target is FLT3 kinase (Homo sapiens (Human), UniProt P36888). In words: FLT3 kinase assay (radiometric). As to conditions: bound. The format is biochemical. A digest of the protocol:
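Recombinant FLT3 (5 ng) phosphorylating poly(Glu4:Tyr1) (2 μg) with 10 μM ATP plus [^33P]-ATP in MOPS pH 7.0 buffer, 4% DMSO final, 60 min at 30° C. Reaction stopped with phosphoric acid, filter-captured and scintillation-counted; IC50 derived from dose-response.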

Assay [4] concerns CSF-1-dependent M-NFS-60 mouse myeloid leukemia cell. In words: M-NFS-60 cell proliferation assay (CellTiter-96). The class given is cell-based. The conditions noted are these: Cytotoxicity, M-NFS-60 cells, 72 hours. The method, boiled down: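 CSF-1-dependent M-NFS-60 cells seeded at 2000 cells/well, settled overnight at 37 °C, 5% CO2, then exposed to increasing compound concentrations for 72 h. Viability read by CellTiter 96 AQueous One reagent (4 h) at 490 nm absorbance.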

For assay [5], the system named is osteoclast precursors (osteoclast differentiation). In words: Osteoclast tartrate-resistant acid phosphatase assay. The class given is cell-based. The conditions noted are these: 168 h, at 1 μM treatment, 7 days, RANKL and M-CSF, read-out: inhibition activity against osteoclast differentiation. A digest of the protocol: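 Differentiation inhibition was scored at 1 μM compound in duplicate, using supernatant TRAP activity read at 550 nm with an acid phosphatase kit.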

The target in another assay is PDGFRβ kinase (Homo sapiens (Human), UniProt P09619). In words: PDGFRβ kinase assay (radiometric). The class given is biochemical. As to conditions: bound. The method, boiled down:
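Radiometric assay: recombinant PDGFRβ with poly(Glu4:Tyr1) in MOPS pH 7.0 buffer containing Mg2+/Mn2+, 10 μM ATP plus [33P]-ATP, and compound at 4% DMSO final. Incubated 60 min at 30° C, stopped with phosphoric acid, filter-captured and scintillation-counted. IC50 from curve fitting.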

Sequence of PDGFRβ kinase (P09619 33-1106): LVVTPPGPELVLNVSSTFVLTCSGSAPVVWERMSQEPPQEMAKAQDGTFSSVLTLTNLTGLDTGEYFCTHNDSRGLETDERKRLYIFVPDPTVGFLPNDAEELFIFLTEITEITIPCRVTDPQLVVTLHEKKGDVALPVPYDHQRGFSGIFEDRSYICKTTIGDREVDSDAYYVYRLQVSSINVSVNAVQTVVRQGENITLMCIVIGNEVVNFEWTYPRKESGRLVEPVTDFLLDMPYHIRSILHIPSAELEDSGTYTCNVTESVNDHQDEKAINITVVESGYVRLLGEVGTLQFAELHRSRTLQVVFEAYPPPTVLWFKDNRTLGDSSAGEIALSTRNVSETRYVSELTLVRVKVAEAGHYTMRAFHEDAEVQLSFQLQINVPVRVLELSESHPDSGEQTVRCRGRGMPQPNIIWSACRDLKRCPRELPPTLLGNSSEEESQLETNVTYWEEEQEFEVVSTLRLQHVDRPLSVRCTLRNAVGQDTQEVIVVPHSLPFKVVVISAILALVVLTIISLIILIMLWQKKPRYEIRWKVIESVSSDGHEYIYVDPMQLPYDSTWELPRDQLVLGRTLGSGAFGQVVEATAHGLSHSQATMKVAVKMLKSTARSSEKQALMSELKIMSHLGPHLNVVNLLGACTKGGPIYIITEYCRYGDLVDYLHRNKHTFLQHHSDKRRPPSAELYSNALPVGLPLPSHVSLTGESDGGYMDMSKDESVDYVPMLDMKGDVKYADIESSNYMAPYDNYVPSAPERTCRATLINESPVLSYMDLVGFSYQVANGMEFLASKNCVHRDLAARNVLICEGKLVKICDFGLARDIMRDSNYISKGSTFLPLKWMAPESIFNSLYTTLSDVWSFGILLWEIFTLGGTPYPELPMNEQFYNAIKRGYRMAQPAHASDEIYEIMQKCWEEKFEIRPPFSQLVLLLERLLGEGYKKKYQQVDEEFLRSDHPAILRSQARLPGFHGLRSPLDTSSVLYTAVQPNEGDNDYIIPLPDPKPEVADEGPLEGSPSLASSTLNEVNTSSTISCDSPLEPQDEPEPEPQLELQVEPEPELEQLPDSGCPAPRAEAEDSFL
Sequence of c-KIT kinase (P10721 26-976): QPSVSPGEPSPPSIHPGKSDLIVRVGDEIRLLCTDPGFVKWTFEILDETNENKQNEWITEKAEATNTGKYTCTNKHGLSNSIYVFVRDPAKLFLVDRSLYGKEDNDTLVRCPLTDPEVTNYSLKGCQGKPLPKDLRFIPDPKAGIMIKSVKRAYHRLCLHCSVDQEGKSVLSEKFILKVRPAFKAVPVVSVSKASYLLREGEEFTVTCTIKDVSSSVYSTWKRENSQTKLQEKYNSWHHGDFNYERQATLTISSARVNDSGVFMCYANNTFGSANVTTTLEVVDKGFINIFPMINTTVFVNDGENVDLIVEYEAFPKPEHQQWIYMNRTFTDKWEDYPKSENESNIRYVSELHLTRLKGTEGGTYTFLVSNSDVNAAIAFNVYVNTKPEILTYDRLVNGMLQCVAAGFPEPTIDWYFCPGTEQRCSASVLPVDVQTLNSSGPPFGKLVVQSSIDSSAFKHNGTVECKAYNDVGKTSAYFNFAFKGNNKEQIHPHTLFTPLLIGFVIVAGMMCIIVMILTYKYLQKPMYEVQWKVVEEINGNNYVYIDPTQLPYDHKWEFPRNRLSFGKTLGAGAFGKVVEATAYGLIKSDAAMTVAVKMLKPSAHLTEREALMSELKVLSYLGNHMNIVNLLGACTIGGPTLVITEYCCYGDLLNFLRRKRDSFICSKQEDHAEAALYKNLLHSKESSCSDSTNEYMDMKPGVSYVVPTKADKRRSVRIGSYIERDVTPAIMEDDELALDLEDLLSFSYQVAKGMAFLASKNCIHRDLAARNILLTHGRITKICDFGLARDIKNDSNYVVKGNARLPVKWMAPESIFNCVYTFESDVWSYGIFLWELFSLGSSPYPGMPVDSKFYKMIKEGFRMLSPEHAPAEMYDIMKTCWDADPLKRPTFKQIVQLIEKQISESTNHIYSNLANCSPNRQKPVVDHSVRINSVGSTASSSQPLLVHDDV
Sequence of FLT3 kinase (P36888 27-993): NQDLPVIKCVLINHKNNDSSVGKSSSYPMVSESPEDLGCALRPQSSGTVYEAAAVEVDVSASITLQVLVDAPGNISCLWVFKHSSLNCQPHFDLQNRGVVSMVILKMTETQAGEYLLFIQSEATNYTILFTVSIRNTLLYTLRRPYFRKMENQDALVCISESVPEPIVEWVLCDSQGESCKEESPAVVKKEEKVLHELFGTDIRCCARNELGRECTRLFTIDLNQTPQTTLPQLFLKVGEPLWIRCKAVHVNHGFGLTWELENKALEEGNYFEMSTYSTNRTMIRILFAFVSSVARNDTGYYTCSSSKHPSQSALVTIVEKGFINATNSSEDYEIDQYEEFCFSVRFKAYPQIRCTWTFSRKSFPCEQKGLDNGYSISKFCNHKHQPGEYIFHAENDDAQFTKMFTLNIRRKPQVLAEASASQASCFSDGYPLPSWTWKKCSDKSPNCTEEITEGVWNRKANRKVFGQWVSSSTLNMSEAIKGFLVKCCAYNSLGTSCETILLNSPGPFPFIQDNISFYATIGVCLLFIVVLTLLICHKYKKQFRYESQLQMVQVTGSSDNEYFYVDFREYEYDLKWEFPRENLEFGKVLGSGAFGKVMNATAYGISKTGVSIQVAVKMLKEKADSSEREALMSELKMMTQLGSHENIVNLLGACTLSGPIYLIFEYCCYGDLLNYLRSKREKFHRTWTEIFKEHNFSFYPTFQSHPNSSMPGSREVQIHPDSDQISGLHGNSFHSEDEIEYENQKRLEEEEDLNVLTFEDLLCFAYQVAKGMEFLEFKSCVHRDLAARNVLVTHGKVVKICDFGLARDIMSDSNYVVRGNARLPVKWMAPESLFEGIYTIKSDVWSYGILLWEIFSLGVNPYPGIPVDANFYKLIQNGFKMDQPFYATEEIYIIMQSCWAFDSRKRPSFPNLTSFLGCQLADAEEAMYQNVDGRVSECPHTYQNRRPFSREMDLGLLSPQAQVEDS
Sequence of CSF-1R kinase (P07333 20-972): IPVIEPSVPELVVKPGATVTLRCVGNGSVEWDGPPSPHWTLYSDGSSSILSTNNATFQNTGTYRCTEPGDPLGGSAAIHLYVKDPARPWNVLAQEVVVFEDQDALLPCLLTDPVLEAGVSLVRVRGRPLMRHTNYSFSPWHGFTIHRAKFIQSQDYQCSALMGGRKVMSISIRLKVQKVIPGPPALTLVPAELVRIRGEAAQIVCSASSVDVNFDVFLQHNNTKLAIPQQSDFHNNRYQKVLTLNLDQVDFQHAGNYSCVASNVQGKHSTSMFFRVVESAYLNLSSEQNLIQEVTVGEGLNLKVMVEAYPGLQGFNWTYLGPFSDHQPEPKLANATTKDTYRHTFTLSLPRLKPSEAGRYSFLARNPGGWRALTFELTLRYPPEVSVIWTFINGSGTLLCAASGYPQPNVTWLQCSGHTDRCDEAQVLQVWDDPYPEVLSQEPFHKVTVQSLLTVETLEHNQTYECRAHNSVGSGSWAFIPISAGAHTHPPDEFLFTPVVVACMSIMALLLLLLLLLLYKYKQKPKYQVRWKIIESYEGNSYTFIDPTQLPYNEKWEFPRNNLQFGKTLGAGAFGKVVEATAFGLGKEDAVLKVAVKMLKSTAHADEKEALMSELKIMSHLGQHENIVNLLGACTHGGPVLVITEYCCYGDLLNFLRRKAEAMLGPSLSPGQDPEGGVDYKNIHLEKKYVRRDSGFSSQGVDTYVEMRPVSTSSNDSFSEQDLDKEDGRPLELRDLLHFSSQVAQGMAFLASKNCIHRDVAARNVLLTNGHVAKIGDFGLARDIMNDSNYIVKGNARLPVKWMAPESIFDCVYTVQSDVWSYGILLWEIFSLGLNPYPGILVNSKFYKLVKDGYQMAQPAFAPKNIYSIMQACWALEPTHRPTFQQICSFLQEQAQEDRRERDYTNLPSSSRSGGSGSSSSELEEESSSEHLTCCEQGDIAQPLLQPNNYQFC

In the case of `COc1cc(Nc2ccc3ncc(N4CCOCC4)nc3c2C#N)ccc1OCc1ccc(CN(C)C)nc1` [Example 115, 6-((4-((6-((dimethylamino)methyl)pyridin-3-yl)methoxy)-3-methoxyphenyl)amino)-3-morpholinoquinoxaline-5-carbonitrile], the IC50 was above 10 µM in assay [1]; 300 to 1000 nM at c-KIT kinase; below 100 nM against CSF-1R kinase; 1 to 10 µM in [2]; 1000 to 10000 nM in [3]; above 1000 nM on FLT3 kinase. Besides, the values for the IC50 (in [4]; at PDGFRβ kinase) were below 300 nM and above 1000 nM, respectively. The inhibition at 1 µM in assay [5] is above 50%.
In the case of `CCn1cc(COc2ccc(Nc3ccc4ncc(N5CCOCC5)nc4c3C#N)cc2OC)cn1` [Example 116, 6-((3-methoxy-4-((1-ethyl-1H-pyrazol-4-yl)methoxy)phenyl)amino)-3-morpholinoquinoxaline-5-carbonitrile], the IC50 was above 10 µM in assay [1]; 100 to 300 nM at c-KIT kinase; below 100 nM against CSF-1R kinase; 1 to 10 µM in assay [2]; 300 to 1000 nM in assay [3]; above 1000 nM on FLT3 kinase. In addition, the IC50 in [4] is below 300 nM; against PDGFRβ kinase, above 1000 nM. Besides, the inhibition at 1 µM in [5] was above 50%.
For the compound `COc1ccc(COc2ccc(Nc3ccc4ncc(N5CCN(C6CC6)CC5)nc4c3C#N)cc2OC)cn1` [Example 118, 3-(4-cyclopropylpiperazin-1-yl)-6-((3-methoxy-4-((6-methoxypyridin-3-yl)methoxy)phenyl)amino)quinoxaline-5-carbonitrile], the IC50 was above 10 µM in assay [1]; 100 to 300 nM against c-KIT kinase; below 100 nM against CSF-1R kinase; above 10 µM in assay [2]; 1000 to 10000 nM in assay [3]; above 1000 nM against FLT3 kinase. For the same compound, the IC50 in assay [4] is below 300 nM; against PDGFRβ kinase it was above 1000 nM. Besides, the inhibition at 1 µM in assay [5] is above 50%.
In the case of `COc1cc(Nc2ccc3ncc(N4CCOCC4)nc3c2C#N)ccc1OCc1ccc(C2CC2)nc1` [Example 120, 6-((4-((6-cyclopropylpyridin-3-yl)methoxy)-3-methoxy-phenyl)amino)-3-morpholinoquinoxaline-5-carbonitrile], the IC50 is above 10 µM in assay [1]; below 100 nM on c-KIT kinase; below 100 nM on CSF-1R kinase; above 10 µM in assay [2]; below 300 nM in [3]; above 1000 nM against FLT3 kinase. Moreover, the figures for the IC50 (in [4]; against PDGFRβ kinase) were below 300 nM and above 1000 nM, respectively. The inhibition at 1 µM in [5] is above 50%.
As for `COc1cc(Nc2ccc3ncc(N4CCOCC4)nc3c2C#N)ccc1OCc1ccc(C)s1` [Example 124, 6-((3-methoxy-4-((5-methylthiophen-2-yl)methoxy)phenyl)amino)-3-morpholinoquinoxaline-5-carbonitrile], the IC50 in [1] was 1 to 10 µM; against c-KIT kinase, below 100 nM; against CSF-1R kinase, below 100 nM; in [2], 1 to 10 µM; in assay [3] it was 300 to 1000 nM; against FLT3 kinase, above 1000 nM. For the same compound, the figures for the IC50 (in [4]; on PDGFRβ kinase) were below 300 nM and above 1000 nM, respectively. Besides, in [5], the inhibition at 1 µM is above 50%.
Consider `COCc1ccc(COc2ccc(Nc3ccc4ncc(N5CCOCC5)nc4c3C#N)cc2OC)nc1` [Example 125, 6-((3-methoxy-4-((5-(methoxymethyl)pyridin-2-yl)methoxy)phenyl)amino)-3-morpholinoquinoxaline-5-carbonitrile], for which the IC50 was above 10 µM in assay [1]; below 100 nM at c-KIT kinase; below 100 nM against CSF-1R kinase; above 10 µM in assay [2]; below 300 nM in assay [3]; above 1000 nM at FLT3 kinase. Further, the IC50 in [4] is 1000 to 10000 nM; against PDGFRβ kinase, above 1000 nM. The inhibition at 1 µM in assay [5] is above 50%.
For the compound `COc1cc(Nc2ccc3ncc(N4CCOCC4)nc3c2C#N)ccc1OCc1ccsc1` [Example 126, 6-((3-methoxy-4-(thiophen-3-ylmethoxy)phenyl)amino)-3-morpholinoquinoxaline-5-carbonitrile], the IC50 in [1] is above 10 µM; on c-KIT kinase, below 100 nM; at CSF-1R kinase it was below 100 nM; in assay [2] it was 1 to 10 µM; in assay [3], below 300 nM; on FLT3 kinase it was above 1000 nM. For the same compound, the results for the IC50 (in [4]; at PDGFRβ kinase) were 300 to 1000 nM and above 1000 nM, respectively. Also, the inhibition at 1 µM in assay [5] was above 50%.
Regarding `COc1cc(Nc2ccc3ncc(N4CCOCC4)nc3c2C#N)ccc1OCc1cccs1` [Example 127, 6-((3-methoxy-4-(thiophen-2-ylmethoxy)phenyl)amino)-3-morpholinoquinoxaline-5-carbonitrile], the half-inhibitory concentration (IC50) is above 10 µM in [1]; below 100 nM against c-KIT kinase; below 100 nM against CSF-1R kinase; 1 to 10 µM in assay [2]; 300 to 1000 nM in assay [3]; above 1000 nM at FLT3 kinase. Further, the figures for the IC50 (in assay [4]; at PDGFRβ kinase) were 1000 to 10000 nM and above 1000 nM, respectively. Also, the inhibition at 1 µM in assay [5] was above 50%.
On to `COc1cc(N(C)c2ccc3ncc(N4CCOCC4)nc3c2C#N)ccc1OCc1ccc(C)nc1` [Example 129, 6-((3-methoxy-4-((6-methylpyridin-3-yl)methoxy)phenyl)(methyl)amino)-3-morpholinoquinoxaline-5-carbonitrile], for which the IC50 in [1] is above 10 µM; against c-KIT kinase it was 300 to 1000 nM; against CSF-1R kinase, below 100 nM; in assay [2], 1 to 10 µM; in assay [3], 1000 to 10000 nM; on FLT3 kinase it was above 1000 nM. Moreover, the IC50 is 300 to 1000 nM in assay [4] and above 1000 nM against PDGFRβ kinase. For the same compound, the inhibition at 1 µM in assay [5] is above 50%.
With `COc1cc(N(C)c2ccc3ncc(N4CCOCC4)nc3c2C#N)ccc1OCc1ccc(C2CC2)nc1` [Example 130, 6-((4-((6-cyclopropylpyridin-3-yl)methoxy)-3-methoxyphenyl)(methyl)amino)-3-morpholinoquinoxaline-5-carbonitrile], the IC50 is above 10 µM in [1]; below 100 nM against c-KIT kinase; below 100 nM against CSF-1R kinase; 1 to 10 µM in [2]; 300 to 1000 nM in [3]; above 1000 nM against FLT3 kinase. For the same compound, the figures for the IC50 (in assay [4]; against PDGFRβ kinase) were below 300 nM and above 1000 nM, respectively. Further, in [5], the inhibition at 1 µM is above 50%.
Take `COc1cc(Nc2ccc3ncc(N4CCOCC4)nc3c2C#N)ccc1OCc1cnn(CCF)c1` [Example 131, 6-((4-((1-(2-fluoroethyl)-1H-pyrazol-4-yl)methoxy)-3-methoxyphenyl)amino)-3-morpholinoquinoxaline-5-carbonitrile]: the IC50 in assay [1] is above 10 µM; on c-KIT kinase, 300 to 1000 nM; against CSF-1R kinase it was below 100 nM; in [2], above 10 µM; in assay [3], above 10000 nM; against FLT3 kinase it was above 1000 nM. The figures for the IC50 (in assay [4]; against PDGFRβ kinase) were below 300 nM and above 1000 nM, respectively. Also, the inhibition at 1 µM in [5] was above 50%.
For `COc1ccc(COc2ccc(Nc3ccc4ncc(N5CCOCC5)nc4c3C#N)cc2OC)nc1` [Example 132, 6-((3-methoxy-4-((5-methoxypyridin-2-yl)methoxy)phenyl)amino)-3-morpholinoquinoxaline-5-carbonitrile], the IC50 in assay [1] was above 10 µM; at c-KIT kinase, 300 to 1000 nM; at CSF-1R kinase it was below 100 nM; in assay [2] it was above 10 µM; in assay [3] it was above 10000 nM; at FLT3 kinase, above 1000 nM. For the same compound, the IC50 in [4] was 300 to 1000 nM; on PDGFRβ kinase, above 1000 nM. The inhibition at 1 µM in assay [5] was above 50%.

In general, IC50 refers to the concentration at which inhibition is half-maximal. By inhibition is commonly meant the percentage by which the read-out fell short of the control.
